Key:
Z-138 [1] = assay: Induction of apoptosis in human Z138 cells assessed as early apoptotic cells at 2.0 nM incubated for 168 hrs by Annexin V-FITC/PI staining based flow cytometric analysis (reference value: 1.68 %); assay type: functional
[2] = Hematological toxicity in human CD34-positive hematopoietic stem/progenitor cell supplemented with erythroid lineage assessed as reduction in cell viability incubated for 14 days by luminometric analysis; assay type: cell-based
Z-138 [3] = assay: Induction of apoptosis in human Z138 cells assessed as viable cells at 2.0 nM incubated for 168 hrs by Annexin V-FITC/PI staining based flow cytometric analysis (reference value: 94.4 %); assay type: functional; conditions: read-out: Activity
[4] = Tmax in Sprague-Dawley rat at 10 mg/kg, po by LC-MS/MS analysis; assay type: ADME, organism-based; conditions: Sprague-Dawley, in vivo, read-out: Tmax
[5] = Hematological toxicity in human CD34-positive hematopoietic stem/progenitor cell supplemented with megakaryocytic lineage assessed as reduction in cell viability incubated for 14 days by luminometric analysis; assay type: cell-based
Z-138 [6] = assay: Induction of apoptosis in human Z138 cells assessed as early apoptotic cells at 0.4 nM incubated for 168 hrs by Annexin V-FITC/PI staining based flow cytometric analysis (reference value: 1.68 %); assay type: functional
Z-138 [7] = assay: Cell cycle arrest in human Z138 cells assessed as increase in DNA content at 50.0 nM incubated for 168 hrs by RNase A/PI staining based flow cytometric analysis relative to control; assay type: functional
[8] = molecular target: Protein arginine N-methyltransferase 1 (Homo sapiens, UniProt Q99873); assay: Inhibition of PRMT1 (unknown origin)
Protein arginine N-methyltransferase 1, sequence (Q99873 whole entry): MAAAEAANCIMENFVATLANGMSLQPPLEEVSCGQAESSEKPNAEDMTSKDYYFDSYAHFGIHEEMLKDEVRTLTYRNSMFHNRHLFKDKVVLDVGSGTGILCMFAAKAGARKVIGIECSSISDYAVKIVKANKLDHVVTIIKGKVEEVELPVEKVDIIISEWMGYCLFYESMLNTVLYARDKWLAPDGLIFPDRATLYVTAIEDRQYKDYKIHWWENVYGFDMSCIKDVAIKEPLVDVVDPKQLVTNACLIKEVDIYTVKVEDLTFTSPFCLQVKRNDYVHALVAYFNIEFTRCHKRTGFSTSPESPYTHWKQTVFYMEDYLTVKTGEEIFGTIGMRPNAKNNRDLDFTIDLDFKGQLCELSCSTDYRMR

[9] = Cmax in Sprague-Dawley rat at 10 mg/kg, po by LC-MS/MS analysis; assay type: ADME, organism-based; conditions: Sprague-Dawley, in vivo, read-out: Cmax
[10] = Cmax in Sprague-Dawley rat at 2 mg/kg, iv by LC-MS/MS analysis; assay type: ADME, organism-based; conditions: in vivo
[11] = AUC (0 to t) in Sprague-Dawley rat at 2 mg/kg, iv by LC-MS/MS analysis; assay type: ADME, organism-based; conditions: in vivo
Z-138 [12] = assay: Induction of apoptosis in human Z138 cells assessed as late apoptotic cells at 10.0 nM incubated for 168 hrs by Annexin V-FITC/PI staining based flow cytometric analysis (reference value: 0.37 %); assay type: functional
Z-138 [13] = assay: Induction of apoptosis in human Z138 cells assessed as viable cells at 50.0 nM incubated for 168 hrs by Annexin V-FITC/PI staining based flow cytometric analysis (reference value: 94.4 %); assay type: functional; conditions: read-out: Activity
Z-138 [14] = assay: Induction of apoptosis in human Z138 cells assessed as late apoptotic cells at 2.0 nM incubated for 168 hrs by Annexin V-FITC/PI staining based flow cytometric analysis (reference value: 0.37 %); assay type: functional
[15] = Clearance in Sprague-Dawley rat at 2 mg/kg, iv by LC-MS/MS analysis; assay type: ADME, organism-based; conditions: in vivo
Z-138 [16] = assay: Induction of apoptosis in human Z138 cells assessed as late apoptotic cells at 0.4 nM incubated for 168 hrs by Annexin V-FITC/PI staining based flow cytometric analysis (reference value: 0.37 %); assay type: functional
[17] = Half-life in Sprague-Dawley rat at 10 mg/kg, po by LC-MS/MS analysis; assay type: ADME, organism-based; conditions: Sprague-Dawley, in vivo
Cytochrome P450 2D6 = Cytochrome P450 2D6 (Homo sapiens, UniProt P10635); assay: Inhibition of CYP2D6 (unknown origin); assay type: ADME
Cytochrome P450 2D6, sequence (P10635 whole entry): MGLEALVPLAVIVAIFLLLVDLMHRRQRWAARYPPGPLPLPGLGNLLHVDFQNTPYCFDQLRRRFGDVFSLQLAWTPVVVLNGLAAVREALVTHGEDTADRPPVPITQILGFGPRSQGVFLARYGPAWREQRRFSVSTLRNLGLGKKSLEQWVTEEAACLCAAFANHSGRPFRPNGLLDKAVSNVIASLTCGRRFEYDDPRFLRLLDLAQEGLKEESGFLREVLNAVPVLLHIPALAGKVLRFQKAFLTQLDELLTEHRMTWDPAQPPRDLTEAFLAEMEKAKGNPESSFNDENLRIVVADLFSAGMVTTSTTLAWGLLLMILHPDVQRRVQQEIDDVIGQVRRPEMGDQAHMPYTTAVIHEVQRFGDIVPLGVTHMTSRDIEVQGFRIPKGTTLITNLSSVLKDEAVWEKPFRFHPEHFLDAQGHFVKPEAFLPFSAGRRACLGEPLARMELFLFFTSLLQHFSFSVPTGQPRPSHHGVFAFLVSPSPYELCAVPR

Z-138 [18] = assay: Antitumor activity against human Z138 cells xenografted in female SCID.BG nude mouse assessed as tumor growth inhibition at 12.5 mg/kg, po administered twice a day for 21 days relative to control; assay type: functional; conditions: Z-138, 504 h, time 21 day, read-out: TGI
[19] = Metabolic stability in monkey liver microsomes assessed as half-life at 1 uM measured upto 240 mins; assay type: ADME, Macaca mulatta, Microsome; conditions: rhesus monkey
Cytochrome P450 2C19 = Cytochrome P450 2C19 (Homo sapiens, UniProt P33261); assay: Inhibition of CYP2C19 (unknown origin); assay type: ADME
Cytochrome P450 2C19, sequence (P33261 whole entry): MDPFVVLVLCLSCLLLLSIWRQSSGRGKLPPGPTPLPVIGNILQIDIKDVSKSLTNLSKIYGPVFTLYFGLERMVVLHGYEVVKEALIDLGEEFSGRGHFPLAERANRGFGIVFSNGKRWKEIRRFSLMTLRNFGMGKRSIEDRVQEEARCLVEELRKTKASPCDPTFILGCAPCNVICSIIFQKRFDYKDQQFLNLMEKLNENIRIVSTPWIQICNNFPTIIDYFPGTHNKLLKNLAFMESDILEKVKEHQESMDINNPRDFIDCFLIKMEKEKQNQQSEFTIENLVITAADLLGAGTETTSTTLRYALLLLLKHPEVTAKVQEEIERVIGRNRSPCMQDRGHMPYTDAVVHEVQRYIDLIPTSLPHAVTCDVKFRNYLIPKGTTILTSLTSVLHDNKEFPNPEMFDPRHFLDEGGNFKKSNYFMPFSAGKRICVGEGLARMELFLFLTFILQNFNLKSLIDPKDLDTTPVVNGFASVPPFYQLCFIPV

Z-138 [20] = assay: Antitumor activity against human Z138 cells xenografted in female SCID.BG nude mouse assessed as tumor growth inhibition at 50 mg/kg, po administered twice a day for 21 days relative to control; assay type: functional; conditions: Z-138, 504 h, time 21 day, read-out: TGI
[21] = Metabolic stability in rat liver microsomes assessed as half-life at 1 uM measured upto 240 mins; assay type: ADME, Microsome
Cytochrome P450 2B6 = Cytochrome P450 2B6 (Homo sapiens, UniProt P20813); assay: Inhibition of CYP2B6 (unknown origin); assay type: ADME
Cytochrome P450 2B6, sequence (P20813 whole entry): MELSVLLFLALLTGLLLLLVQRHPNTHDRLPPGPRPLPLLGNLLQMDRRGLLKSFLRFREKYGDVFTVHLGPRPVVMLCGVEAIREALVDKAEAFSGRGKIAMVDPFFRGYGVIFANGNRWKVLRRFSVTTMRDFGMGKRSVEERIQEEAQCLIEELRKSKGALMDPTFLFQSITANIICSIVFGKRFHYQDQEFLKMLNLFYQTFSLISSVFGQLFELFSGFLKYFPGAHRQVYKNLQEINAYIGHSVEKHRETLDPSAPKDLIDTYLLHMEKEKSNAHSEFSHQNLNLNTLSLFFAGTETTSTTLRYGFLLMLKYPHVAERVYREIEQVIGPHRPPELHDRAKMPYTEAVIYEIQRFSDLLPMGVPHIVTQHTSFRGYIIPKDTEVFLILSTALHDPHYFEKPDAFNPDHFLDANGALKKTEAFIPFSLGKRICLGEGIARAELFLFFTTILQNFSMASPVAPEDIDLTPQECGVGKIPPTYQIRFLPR

[22] = Protein binding in monkey plasma; assay type: ADME, cell-free, Macaca mulatta; conditions: rhesus monkey, read-out: PPB (converted)
Cytochrome P450 2C8 = Cytochrome P450 2C8 (Homo sapiens, UniProt P10632); assay: Inhibition of CYP2C8 (unknown origin); assay type: ADME
Cytochrome P450 2C8, sequence (P10632 whole entry): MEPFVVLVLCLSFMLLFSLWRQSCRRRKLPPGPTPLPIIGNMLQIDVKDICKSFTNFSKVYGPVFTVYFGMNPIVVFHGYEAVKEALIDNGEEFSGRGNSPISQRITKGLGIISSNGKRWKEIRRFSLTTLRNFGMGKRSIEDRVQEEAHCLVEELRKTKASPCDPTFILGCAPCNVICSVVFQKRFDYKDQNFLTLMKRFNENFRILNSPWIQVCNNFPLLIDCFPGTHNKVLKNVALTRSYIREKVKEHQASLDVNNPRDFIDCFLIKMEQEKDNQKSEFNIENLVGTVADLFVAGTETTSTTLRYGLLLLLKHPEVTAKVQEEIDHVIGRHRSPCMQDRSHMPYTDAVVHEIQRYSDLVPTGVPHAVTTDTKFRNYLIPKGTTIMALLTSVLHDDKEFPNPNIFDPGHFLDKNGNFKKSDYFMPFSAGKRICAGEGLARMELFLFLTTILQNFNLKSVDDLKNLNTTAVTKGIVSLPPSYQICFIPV

[23] = Toxicity in Sprague-Dawley rat assessed as animal death at 31.25 to 125 mg/kg, po administered once a day for 14 days; assay type: organism-based; conditions: in vivo, 336 h, dose 31.25-125 mg/kg, time 14 day
Z-138 [24] = assay: Antitumor activity against human Z138 cells xenografted in female SCID.BG nude mouse assessed as tumor growth inhibition at 25 mg/kg, po administered twice a day for 21 days relative to control; assay type: functional; conditions: Z-138, 504 h, time 21 day, read-out: TGI
[25] = Toxicity in Sprague-Dawley rat assessed as structural changes in caecum at 31.25 to 125 mg/kg, po administered once a day for 14 days by H and E staining based analysis; assay type: organism-based; conditions: in vivo, 336 h, dose 31.25-125 mg/kg, time 14 day
[26] = Toxicity in Sprague-Dawley rat assessed as morphological changes in thymus at 31.25 to 125 mg/kg, po administered once a day for 14 days by H and E staining based analysis; assay type: organism-based; conditions: in vivo, 336 h, dose 31.25-125 mg/kg, time 14 day
Cytochrome P450 2C9 = Cytochrome P450 2C9 (Homo sapiens, UniProt P11712); assay: Inhibition of CYP2C9 (unknown origin); assay type: ADME
Cytochrome P450 2C9, sequence (P11712 whole entry): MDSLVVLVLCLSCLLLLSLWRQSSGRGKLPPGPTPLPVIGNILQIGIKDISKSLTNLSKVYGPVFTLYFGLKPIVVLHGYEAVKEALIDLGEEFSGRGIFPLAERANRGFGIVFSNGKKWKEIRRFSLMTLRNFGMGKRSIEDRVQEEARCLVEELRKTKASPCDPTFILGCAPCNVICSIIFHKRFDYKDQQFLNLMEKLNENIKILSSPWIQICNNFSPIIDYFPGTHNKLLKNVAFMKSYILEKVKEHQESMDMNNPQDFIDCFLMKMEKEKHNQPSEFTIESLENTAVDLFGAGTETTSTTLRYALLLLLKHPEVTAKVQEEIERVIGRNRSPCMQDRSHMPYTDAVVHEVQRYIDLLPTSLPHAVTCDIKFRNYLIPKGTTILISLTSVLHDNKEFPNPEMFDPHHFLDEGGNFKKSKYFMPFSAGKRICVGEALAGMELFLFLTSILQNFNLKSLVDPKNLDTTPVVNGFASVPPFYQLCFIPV

Z-138 [27] = assay: Antiproliferative activity against PRMT5 knockout human Z138 cells measured after 7 days by CellTiter-Glo luminescence cell viability assay; assay type: functional, cell-based; conditions: Z-138, 168 h
[28] = Protein binding in dog plasma; assay type: ADME, cell-free, Canis lupus familiaris; conditions: read-out: PPB (converted)
[29] = Protein binding in mouse plasma; assay type: ADME, cell-free; conditions: read-out: PPB (converted)
[30] = Toxicity in Sprague-Dawley rat assessed as structural changes in thymus at 31.25 to 125 mg/kg, po administered once a day for 14 days by H and E staining based analysis; assay type: organism-based; conditions: in vivo, 336 h, dose 31.25-125 mg/kg, time 14 day
MOLM-13 = assay: Antiproliferative activity against human MOLM-13 cells measured after 4 to 5 days by CCK-8 assay; assay type: functional, cell-based
PRMT5/MEP50 complex = PRMT5/MEP50 complex (Homo sapiens, UniProt O14744); assay: Inhibition of recombinant N-terminal FLAG-tagged human full-length PRMT5/full length human MEP50 extracted from baculovirus expression system using [3H]-SAM as substrate preincubated for 15 mins followed by substrate addition and measured after 60 mins by multimode plate reader analysis
PRMT5/MEP50 complex, sequence (O14744 whole entry): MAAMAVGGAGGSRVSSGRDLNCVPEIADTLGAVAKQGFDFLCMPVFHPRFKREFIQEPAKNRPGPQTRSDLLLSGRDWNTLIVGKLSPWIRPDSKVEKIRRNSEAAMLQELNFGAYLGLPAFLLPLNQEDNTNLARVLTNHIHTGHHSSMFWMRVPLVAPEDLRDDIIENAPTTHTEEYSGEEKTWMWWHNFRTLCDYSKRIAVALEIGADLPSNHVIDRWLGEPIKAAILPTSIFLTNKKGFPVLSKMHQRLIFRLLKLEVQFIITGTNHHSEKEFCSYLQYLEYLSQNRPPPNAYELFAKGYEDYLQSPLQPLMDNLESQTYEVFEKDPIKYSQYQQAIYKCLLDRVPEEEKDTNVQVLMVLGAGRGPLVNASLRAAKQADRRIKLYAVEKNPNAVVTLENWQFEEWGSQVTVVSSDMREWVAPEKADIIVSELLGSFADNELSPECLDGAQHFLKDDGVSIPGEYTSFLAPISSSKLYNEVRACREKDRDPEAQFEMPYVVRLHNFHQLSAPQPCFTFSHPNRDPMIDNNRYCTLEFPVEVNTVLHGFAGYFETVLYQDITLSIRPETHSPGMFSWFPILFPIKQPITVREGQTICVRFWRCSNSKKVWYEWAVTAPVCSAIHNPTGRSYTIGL
PRMT5/MEP50 complex, sequence (Q9BQA1 whole entry, further chain): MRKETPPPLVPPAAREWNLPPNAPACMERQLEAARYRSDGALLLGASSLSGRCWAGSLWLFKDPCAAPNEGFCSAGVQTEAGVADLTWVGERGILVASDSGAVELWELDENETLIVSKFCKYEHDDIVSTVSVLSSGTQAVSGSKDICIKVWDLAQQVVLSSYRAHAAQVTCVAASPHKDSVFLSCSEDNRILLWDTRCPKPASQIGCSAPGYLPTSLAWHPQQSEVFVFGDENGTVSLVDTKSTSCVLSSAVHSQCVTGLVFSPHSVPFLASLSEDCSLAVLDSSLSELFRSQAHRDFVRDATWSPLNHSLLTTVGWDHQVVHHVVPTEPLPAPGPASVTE

[31] = Toxicity in Sprague-Dawley rat assessed as structural changes in spleen at 31.25 to 125 mg/kg, po administered once a day for 14 days by H and E staining based analysis; assay type: organism-based; conditions: in vivo, 336 h, dose 31.25-125 mg/kg, time 14 day
NCI-H1299 = assay: Antiproliferative activity against human NCI-H1299 cells measured after 4 to 5 days by CCK-8 assay; assay type: functional, cell-based
[32] = Toxicity in Sprague-Dawley rat assessed as morphological changes in spleen at 31.25 to 125 mg/kg, po administered once a day for 14 days by H and E staining based analysis; assay type: organism-based; conditions: in vivo, 336 h, dose 31.25-125 mg/kg, time 14 day

Compound: CC(=O)N1CCC(Nc2cc(C(=O)NC[C@H](O)CN3CCc4ccccc4C3)ncn2)CC1 [PEMRAMETOSTAT]
- Activity (Z-138 [1]): 1.97%
- IC50 at 14 days [2]: 43 nM
- viability at 0.002 µM (Z-138 [3]): 95.1%
- Tmax [4]: 78 min
- IC50 at 14 days [5]: 55 nM
- Activity (Z-138 [6]): 1.53%
- Activity (Z-138 [7]): 59.2%
- IC50 [8]: > 10000 nM
- Cmax [9]: 355 ng/mL
- Cmax [10]: 1830 ng/mL
- AUC(0-t) [11]: 598 ng·h/mL
- Activity (Z-138 [12]): 1.53%
- viability at 0.05 µM (Z-138 [13]): 53.4%
- Activity (Z-138 [14]): 0.31%
- clearance [15]: 56.7 mL/min/kg
- Activity (Z-138 [16]): 0.33%
- half-life [17]: 36 min

Compound: CC(=O)N1CC2(CC(Nc3cc4c(cn3)C3(CC3)CN(C[C@H](O)CN3CCc5ccccc5C3)C4=O)C2)C1
- IC50 (Cytochrome P450 2D6): > 50000 nM
- inhibition in vivo at 12.5 mg/kg (Z-138 [18]): 104%
- half-life at 1 µM [19]: 18.2 min
- Activity (Z-138 [1]): 22%
- IC50 (Cytochrome P450 2C19): > 50000 nM
- inhibition in vivo at 50 mg/kg (Z-138 [20]): 106%
- half-life at 1 µM [21]: 85.6 min
- IC50 (Cytochrome P450 2B6): > 50000 nM
- fraction unbound [22]: 0.11
- IC50 at 14 days [2]: 216 nM
- viability at 0.002 µM (Z-138 [3]): 62.1%
- Tmax [4]: 6 min
- IC50 (Cytochrome P450 2C8): > 50000 nM
- Activity [23]: Non-toxic
- IC50 at 14 days [5]: 106 nM
- Activity (Z-138 [6]): 1.89%
- inhibition in vivo at 25 mg/kg (Z-138 [24]): 106%
- Activity (Z-138 [7]): 71.6%
- Activity [25]: Non-toxic
- IC50 [8]: > 10000 nM
- Activity [26]: Non-toxic
- Cmax [9]: 894 ng/mL
- Cmax [10]: 1370 ng/mL
- IC50 (Cytochrome P450 2C9): > 50000 nM
- AUC(0-t) [11]: 771 ng·h/mL
- Activity (Z-138 [12]): 32.4%
- IC50 (Z-138 [27]): > 10000 nM
- viability at 0.05 µM (Z-138 [13]): 7.61%
- fraction unbound [28]: 0.0204
- Activity (Z-138 [14]): 9.25%
- fraction unbound [29]: 0.0701
- Activity [30]: Non-toxic
- clearance [15]: 41.7 mL/min/kg
- Activity (Z-138 [16]): 0.44%
- IC50 (MOLM-13): 30.1 nM
- IC50 (PRMT5/MEP50 complex): 20.7 nM
- Activity [31]: Non-toxic
- half-life [17]: 132 min
- IC50 (NCI-H1299): 55.6 nM
- Activity [32]: Non-toxic

Reference: ChEMBL document CHEMBL6087464, “Design, Synthesis, and Biological Evaluation of 3,4-Dihydroisoquinolin-1(2H)-one Derivatives as Protein Arginine Methyltransferase 5 Inhibitors for the Treatment of Non-Hodgkin's Lymphoma” (J Med Chem, 2025)
